# From patent US8088749B2, “Compositions and methods for treating cancer” (The Regents of the University of Michigan, priority 2007, dated 2012)
# Legend:
# Type in all cases: cell-based, human
# [1] = test system: H2AX; test: H2AX phosphorylation after gemcitabine, Panc-1 cells; conditions: control Panc-1 cells, gemcitabine 50 uM
# Excerpt: […] Top, flowcytometric analysis of γH2AX and propidium iodide staining of DNA content. […] Bottom, comparison of the total DNA content of the population (black) versus the γH2AX-positive fraction (green). Results are representative 3 separate experiments.
# [2] = test system: ATDC; test: ATDC phosphorylation in transfected HEK293 cells
# Method: (B) Knockdown of ATM by specific ATM shRNA prevents IR induced phosphorylation of ATDC in Panc1 cells (n=3). (C) IR-dependent phosphorylation of ATDC occurs at serine 550. HEK 293 cells over-expressing wild type or S550A mutant ATDC were treated with IR (10 Gy) for varyin times (0-60 min). Cell lysates were harvested and co-immunoprecipitation experiments were performed using anti-ATDC and anti-phospho-serine/threonine antibodies. Results are representative of three separate experiments (D) Gemcitabine induces phosphorylation of ATDC in transfected HEK293 cells.
# ATDC has overlapping function with ATM in cell cycle checkpoint activation and that trafficking of ATDC to DNA repair foci was dependent on ATM (see, e.g., FIGS. 4,6,7,8). ATDC had been shown previously to undergo phosphorylation on serine/threonine in A431 cells (see, e.g., Laderoute K R, et al., Int J Cancer 1996; 66: 772-778). It was hypothesized therefore that ATDC is a phosphorylation target of ATM and ATR. It is known that phosphorylation targets of ATM/ATR share a common motif, with either a serine or threonine residue, usually followed by a glutamine (the SQ or TQ motif) (see, e.g., Ziv Y, et al., Nature Cell Biol 2006; 8: 870-876). […] It was verified that ATDC functioned downstream of ATM, since silencing of ATDC had no effect on the phosphorylation of ATM in response to IR (FIG. 11A). […]
# [3] = test system: ATDC; test: ATDC nuclear foci by immunofluorescence after gemcitabine, Panc-1 cells; conditions: gemcitabine (amount/time); 50 uM
# Excerpt: (A). Panc1 cells exposed to IR (5 Gy, 1 hr) were fixed and costained with anti-ATDC (red) and anti-γH2AX (green) antibodies. […] Cell nuclei were counterstained with DAPI (blue). (B) Panc-1 cells exposed to IR (5 Gy, 1 hr) and co-immunostained with anti-ATDC antibody (red) and anti-p-ATM antibody (green). Co-localization of ATDC (red) with p-ATM (green) is observed in yellow in the merged image. Experiments were repeated twice with similar results. […] Results representative of 3 separate experiments.
# It has been well-documented that in response to DNA damage, numerous proteins involved in the DNA damage response traffic to discrete nuclear foci. […] Using double immunofluorescence staining, it was observed that ATDC co-localized with γH2AX (FIG. 7A), presumably at DNA damage foci. […] ATDC co-localized with ATR following gemcitabine treatment (FIG. 7B). The time course of ATDC localizing to DNA damage foci was similar to the time course of the formation of foci of phosphorylated H2AX. Whether ATDC is required for the formation of γH2AX and/or ATR foci in pancreatic cancer cells following gemcitabine was investigated.
# [4] = test system: p53 and Chk1; test: Phosphorylation of p53 and Chk1 in response to gemcitabine, Panc-1 cells; conditions: gemcitabine 10 μM; control shRNA Panc-1 cells
# Method: To further investigate the role of ATDC in the DNA damage response, the effect of silencing ATDC on phosphorylation of p53 and Chk1 was investigated. In response to gemcitabine (10 μM), replication forks stall and the ATR signaling cascade is activated, which phosphorylates and activates several proteins critical to inducing the G1-S cell cycle checkpoint, including p53 and Chk1 (see, e.g., Ljungman M, Mutation Res 2005; 577: 203-216).
smiles,measurement,setting,value
Nc1ccn([C@@H]2O[C@H](CO)[C@@H](O)C2(F)F)c(=O)n1 [gemcitabine],time of induction of H2AX phosphorylation,[1],≤ 10 min
same,time of return of H2AX phosphorylation to basal levels,[1],1 h
same,H2AX phosphorylation,[1]; x hours,transient H2AX phosphorylation
same,phosphorylation of ATDC,[2],induces
same,ATDC nuclear foci formation,[3],ATDC formed discrete nuclear foci
same,phosphorylation of p53 and Chk1,[4],underwent phosphorylation
